According to patent US7598244B2, “[1,2,4]triazolo[1,5,a]pyrimidin-2-ylurea derivative and use thereof” (Nippon Kayaku Kabushiki Kaisha, priority 2003, dated 2009):
pEC50, pIC50: −log10 of the molar value. Read-outs that look alike come from different tables or passages of the source.

How the values were obtained:
[1] = test system: (C57BL/6XB6. C—H2^bml) F1 mice; assay: Life-lengthening effect on graft versus host disease (GVHD); format: in vivo, mouse; settings: oral, once a day
Procedure: Life-Lengthening Effect on Graft Versus Host Disease (GVHD)
The present test was carried out by modification of the method of Jonathan et al. (Jonathan et al., Blood, p. 93 (1999)). First, 6.0 Gy X-ray was applied to (C57BL/6XB6. C—H2^bml) F1 mice (produced by mating 6XB6.C—H2^bml mice (Jackson Laboratory) with C57BL/6 mice (Charles River Japan); female; 8 to 12-week-old). Thereafter, CD8 positive T cells (1.25×10^6 cells) prepared from the splenic cells of C57BL/6 mice (Charles River Japan; female; 8-week-old) were intravenously injected into the above (C57BL/6XB6. C—H2^bml) F1 mice. From the day before the injection, the test compound having each diluted concentration or 0.5% carboxymethyl cellulose used as a solvent was orally administered to the mice once a day for 7 to 30 consecutive days. The day on which the transplantation was conducted was defined as day 0. Based on the median of the survival days of each group, the prolongation rate of such survival dates was calculated using the following formula (7). Thus, the effect of the test compound on GVHD was analyzed.
[formula] • Eexp: Median of survival days of test compound administration group • Cexp: Median of survival days of solvent administration group

[2] = test system: MHC class I molecules of T1 cells (human lymphoma cell line 174×CEM.); assay: Effect on expression of MHC class I from T1 cells (flow cytometry, MFI); format: cell-based; settings: 3 days culture
Summary of the method: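 EC20 is the compound level that lowers MHC class I MFI by 20% relative to compound-free cultures. Read-out was flow cytometry after FITC W6/32 staining.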

[3] = test system: human dendritic cells cultured with human allogenic T cells; assay: Effect on the ability of human dendritic cells to induce the growth of allogenic T cells ([3H]-thymidine incorporation); format: cell-based; settings: dendritic cells treated 3 days with test compound and TNF-α, then 5 days with allogenic T cells, read-out: IC50 (inhibition of DNA synthesis of lymphocytes)
Procedure: Effect on the Ability of Human Dendritic Cells to Induce the Growth of Allogenic T Cells
Immature dendritic cells were cultured with a test compound and TNF-α for 3 days by the same method as that described in Test Example 2. The obtained dendritic cells (2.5×10^3 cells/50 μl/well) were cultured together with human allogenic T cells (2.0×10^5 cells/150 μl/well) in a 96-well flat bottom plate at 37° C. for 5 days in an incubator containing 5% carbon dioxide. Thereafter, [^3H]-thymidine (Amersham Pharmacia Biotech) was added thereto at an amount of 1 μCi/10 μl/well, 16 hours before completion of the culture. After completion of the culture, cells were captured on a glass filter using a cell harvester (Skatron Instrument) and then dried. Thereafter, Scintillator ACS-II (Amersham Pharmacia Biotech) was added thereto, and the radioactivity of [^3H]-thymidine incorporated into the cells were then measured using a liquid scintillation counter. The inhibition rate of the DNA synthesis of lymphocytes was calculated using the following formula (3). Thereafter, the concentration of a test compound necessary for inhibition of 50% (IC50 value) was obtained.
[formula] • Eexp: The amount of [^3H]-thymidine incorporated into cultured cells containing test compound • Cexp: The amount of [^3H]-thymidine incorporated into cultured cells containing no test compounds

mouse splenic cells = assay: Inhibitory action on blastogenesis of mouse splenic cells ([3H]-thymidine incorporation); format: cell-based; settings: 72 hours
Procedure: Inhibitory Action on Blastogenesis of Mouse Splenic Cells
The spleen was excised from each of BALB/c mice (Charles River Japan; female; 10-week-old), and it was allowed to pass through a mesh to obtain a single cell suspension. This single cell suspension was prepared to be 1.0×10^6 cells/ml. Thereafter, 200 μl of the suspension was fractionated into each well of a 96-well plate. Thereafter, as blastogenic stimulation, 5 μg/ml concanavalin A (Pharmacia) or 25 μg/ml Escherichia coli-derived lipopolysaccharide (DIFCO) was added to the well, and then, a solution containing a test compound with each different concentration was further added thereto at an amount of 20 μl/well. The obtained mixture was cultured at 37° C. for 72 hours in an incubator containing 5% carbon dioxide. Thereafter, a 1 μCi/10 μl/well [^3H]-thymidine solution was added thereto 64 hours after initiation of the culture. After completion of the culture (72 hours later), the cells were captured on a filter using a cell harvester, and they were then dried. Thereafter, scintillator was added thereto, and the radioactivity of [^3H]-thymidine incorporated into the cells was then measured using a liquid scintillation counter. The inhibition rate of the DNA synthesis was calculated using the aforementioned formula (3). Thereafter, the concentration of a test compound necessary for inhibition of 50% (IC50 value) was obtained.

BALB/c mice [4] = assay: Effect on mouse delayed-type hypersensitivity reaction (DTH reaction), swelling of the sole; format: in vivo; settings: Intraperitoneal, administration period 7 days, 100 mg/kg/single administration
Procedure: Effect on Mouse Delayed-Type Hypersensitivity Reaction (DTH Reaction)
1.0×10^5 sheep erythrocytes (Nippon Seibutsu Zairyo Center, Co., Ltd.) were administered to each of BALB/c mice (Charles River Japan, Inc.; female; 8-week-old) by intravenous injection for sensitization. From the day of administration of the sheep erythrocytes, a test compound was administered to the mouse. As a control, a 0.5% carboxymethyl cellulose (CMC)-Na solution and a normal saline solution used as solvents were administered to the same type of mouse via oral administration or intraperitoneal administration. Five days after the antigen sensitization, 1.0×10^8 sheep erythrocytes were subcutaneously injected into the sole of the mouse. 24 hours later, the thickness of the sole was measured. The value obtained by subtracting the mean value of the thicknesses of the soles of mice, to which a normal saline solution had been administered instead of the sheep erythrocytes, from the above measurement value, was defined as swelling of the sole generated as a result of the DTH reaction. The inhibition rate of the swelling of the sole caused by the DTH reaction was calculated using the following formula (5). The amount of the test compound necessary for inhibition of 50% (ED50 value) was obtained as the activity of the test compound to inhibit the DTH reaction. It is to be noted that cyclosporin A was used as a positive control.
[formula] • Eexp: Swelling of sole of mouse to which test compound was administered • Cexp: Swelling of sole of mouse to which solvent was administered

[5] = test system: MHC class I molecules of human peripheral blood-derived dendritic cells; assay: Effect on expression of MHC class I molecules from human peripheral blood-derived dendritic cells; format: cell-based; settings: dendritic cells matured with TNF-α, 3 days; read-out: EC50 (reduction of 50% of the number of cells wherein MHC class I molecules were highly expressed)
Excerpt: Effect on Expression of MHC Class I Molecules from Human Peripheral Blood-Derived Dendritic Cells
Monocytes were isolated from human peripheral blood by the specific gravity centrifugation method. Thereafter, using mouse anti-human CD14 antibody-binding microbeads and a magnetic cell separation system (Miltenyi Biotec), CD14 positive cells were separated from the peripheral blood monocytes. The separated CD14 positive cells were suspended in an RPMI 1640 medium containing 10% FBS, and the suspension was then inoculated in a 6-well plate, resulting in a concentration of 1.0×10^6 cells/well. It was cultured at 37° C. for 20 minutes in an incubator containing 5% carbon dioxide. […] Thereafter, RPMI 1640 containing a 500 U/ml human recombinant […] (hereinafter referred to as GM-CSF; Anapure Bioscientific), 50 ng/ml human recombinant interleukin 4 (hereinafter referred to as IL-4; Pepro Tech), and 10% FBS, was added to the remaining suspension at a concentration of 2 ml/well. The obtained mixture was then cultured at 37° C. in an incubator containing 5% carbon dioxide. When adhesive CD14 positive cells are cultured in the presence of GM-CSF and IL-4, the CD14 positive cells were differentiated into non-adhesive immature dendritic cells. After the cells had been cultured for 7 days, non-adhesive cells were recovered to obtain immature dendritic cells. Using a 6-well plate, the immature dendritic cells (2.5×10^5 cells/well) were cultured in RPMI 1640 containing a 100 U/ml human recombinant tumor necrosis factor-α (hereinafter referred to as TNF-a; Pepro Tech), a test compound, and 10% FBS, at 37° C. for 3 days in an incubator containing 5% carbon dioxide. The dendritic cells became mature as a result of the presence of TNF-α, but in the present test, a test compound was allowed to simultaneously act on the cells. The mature dendritic cells were then stained with fluoroisothiocyanate-labeled mouse anti-human MHC class I monoclonal antibody (an antibody generated from the cell line W6/32 (ATCC No. CRL 1991)). The rate of the number of cells wherein MHC class I molecules were highly expressed to the total number of cells was measured by flow cytometry. The reduction rate of the number of cells wherein MHC class I molecules were highly expressed was calculated using the following formula (2), and the concentrations of test compounds necessary for reduction of 50% (EC50 values) were obtained.
[formula] • Eexp: (The number of cells, wherein MHC class I molecules are highly expressed, in cultured cells containing test compound)/(the total number of cells) • Cexp: (The number of cells, wherein MHC class I molecules are highly expressed, in cultured cells containing no test compounds)/(the total number of cells)

BALB/c mice [6] = assay: Effect on mouse plaque forming cells (PFCs) to sheep erythrocytes; format: in vivo; settings: Intraperitoneal, 25 mg/kg/single administration, twice a day for 4 days
Procedure: Effect on Mouse Plaque Forming Cells (PFCs)
Sheep erythrocytes (Nippon Seibutsu Zairyo Center, Co., Ltd.) were intraperitoneally administered to each of BALB/c mice (Charles River Japan, Inc.; female; 8-week-old) at an amount of 1.0×10^8 cells. Thereafter, a test compound was administered thereto twice a day for 4 days after the first administration (only once on the first day) (n=4). On the day subsequent to completion of the administration of the test compound, splenic cells were prepared from the mouse, and the number of PFCs to the sheep erythrocytes was counted by the method of Cunninham (Cunninham, A. J. et al., Immunology, vol. 14, p. 599 (1968)). The number of PFCs per number of splenic cells of 1.0×10^6 was obtained. The reduction rate of the number of PFC in the mouse to which the test compound had been administered, to the number of PFCs in a control mouse to which the test compound had not been administered but only a solvent had been administered, was calculated using the following formula (4).
[formula] • Eexp: The number of PFCs per 1×10^6 splenic cells of mouse to which test compound was administered • Cexp: The number of PFCs per 1×10^6 splenic cells of mouse to which solvent was administered

[7] = 100 mg/kg/single administration

## COc1cccc([C@H](C)NC(=O)Nc2nc3nccc(-c4ccc5c(c4)OCO5)n3n2)c1 [Example 300, (S)-1-[1-(3-methoxyphenyl)ethyl]-3-[7-(3,4-methylenedioxyphenyl)-[1,2,4]triazolo[1,5-a]pyrimidin-2-yl]urea]
[1]; 10 mg/kg/single administration
  Lengthening rate of survival days (%): 100%
[2]
  EC20 (concentration necessary for suppressing 20% of the expression level of MHC class I molecules): 0.019 µM

## COc1ccc(-c2ccnc3nc(NC(=O)N[C@@H](C)c4cccc(OC)c4)nn23)cc1 [Example 132]
[1]; [7]
  Lengthening rate of survival days (%): 200%
[3]
  pIC50: 6.20
[2]
  EC20 (concentration necessary for suppressing 20% of the expression level of MHC class I molecules): 0.039 µM
Mouse splenic cells; 5 μg/ml concanavalin A, read-out: Lymphocyte blastogenesis IC50 (μM), ConA stimulation
  IC50: 0.08 µM
Mouse splenic cells; 25 μg/ml Escherichia coli-derived lipopolysaccharide, read-out: Lymphocyte blastogenesis IC50 (μM), LPS stimulation
  IC50: 0.06 µM

## COc1ccc(-c2ccnc3nc(NC(=O)NC(C)CCCC(C)(C)O)nn23)cc1 (racemic) [Example 219]
[1]; 25 mg/kg/single administration
  Lengthening rate of survival days (%): 200%
[2]
  EC20 (concentration necessary for suppressing 20% of the expression level of MHC class I molecules): 0.05 µM

## COc1ccc(-c2ccnc3nc(NC(=O)N[C@H](C(=O)NCCN4CCCCC4)C(C)C)nn23)cc1.Cl [Example 135]
[2]
  EC20 (concentration necessary for suppressing 20% of the expression level of MHC class I molecules): 0.81 µM
BALB/c mice [4]
  Inhibition rate (%) of swelling of the sole: 40.2%

## COc1ccc(-c2ccnc3nc(NC(=O)N[C@H]4CC[C@H](O)CC4)nn23)cc1 [Example 037]
[5]
  pEC50: 6.70
[3]; Homo sapiens
  pIC50: 5.87
[2]
  EC20 (concentration necessary for suppressing 20% of the expression level of MHC class I molecules): 0.2 µM
BALB/c mice [6]
  Reduction rate (%) of number of PFCs: 31.2%

## COc1ccc(-c2ccnc3nc(NC(=O)N[C@@H](C)CCCC(C)(C)O)nn23)cc1 [Example 319, (S)-1-(5-hydroxy-1,5-dimethylhexyl)-3-[7-(4-methoxyphenyl)-[1,2,4]triazolo[1,5-a]pyrimidin-2-yl]urea]
[1]; 10 mg/kg/single administration
  Lengthening rate of survival days (%): 200%
[1]; 50 mg/kg/single administration
  Lengthening rate of survival days (%): 200%
[2]
  EC20 (concentration necessary for suppressing 20% of the expression level of MHC class I molecules): 0.02 µM

## COc1ccc(-c2ccnc3nc(NC(=O)NC(C)CCC(C)(C)O)nn23)cc1 (racemic) [Example 317, (±)-1-(4-hydroxy-1,4-dimethylpentyl)-3-[7-(4-methoxyphenyl)-[1,2,4]triazolo[1,5-a]pyrimidin-2-yl]urea]
[1]; 30 mg/kg/single administration
  Lengthening rate of survival days (%): 24%
[2]
  EC20 (concentration necessary for suppressing 20% of the expression level of MHC class I molecules): 0.06 µM

## CCOCCC(C)NC(=O)Nc1nc2nccc(-c3ccc(OC)cc3)n2n1 (stereo not shown) [Example 274]
[1]; [7]
  Lengthening rate of survival days (%): 55%
[2]
  EC20 (concentration necessary for suppressing 20% of the expression level of MHC class I molecules): 0.11 µM
